Assay results taken from patent publication US20120316169A1, “2-ARYL-PROPIONAMIDE DERIVATIVES USEFUL AS BRADYKININ RECEPTOR ANTAGONISTS AND PHARMACEUTICAL COMPOSITIONS CONTAINING THEM” (DOMPÉ S.P.A., priority 2009, published 2012).

Target: T1, BKB1 receptors (Homo sapiens, UniProt P46663)
T1 construct: Human (IMR-90) lung fibroblast cells expressing native B1 receptors; endogenous in cells; host or cells: IMR-90 human lung fibroblasts, interleukin-treated to up-regulate BKB1 receptors
T1 sequence (P46663 1-353): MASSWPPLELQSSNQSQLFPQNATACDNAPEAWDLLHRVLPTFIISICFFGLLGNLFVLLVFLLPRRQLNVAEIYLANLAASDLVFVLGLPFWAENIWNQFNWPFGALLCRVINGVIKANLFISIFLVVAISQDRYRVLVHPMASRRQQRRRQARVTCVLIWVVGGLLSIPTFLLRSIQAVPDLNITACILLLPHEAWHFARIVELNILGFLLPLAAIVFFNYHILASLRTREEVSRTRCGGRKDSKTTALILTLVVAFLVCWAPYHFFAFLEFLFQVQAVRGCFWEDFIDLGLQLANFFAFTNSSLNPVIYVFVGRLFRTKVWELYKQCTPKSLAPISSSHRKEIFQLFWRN
Experiment: Calcium mobilization assay (FLIPR), B1 receptors in IMR-90 cells
Format: cell-based
Details: Human IMR-90 lung fibroblast cells, up-regulated BKB1 receptors, agonist desArg10-kallidin (DAKD) 2 to 8 nM, calcium-dependent fluorescence
Experimental: Calcium mobilization assay (FLIPR)—Human (IMR-90) lung fibroblast cells expressing native B1 receptors were harvested by trypsinization and seeded into black wall/clear bottom 96-well plates (Costar 3904; Corning Life Sciences, Acton, Mass.) at approximately 13,000 cells/well. After 1 day incubation, cells were treated with […] (0.35 ng/ml) in 10% FBS/MEM for 2 h to up-regulate BKB1 receptors. Induced cells were loaded with fluorescent calcium indicator by incubation with 2.3 μM Fluo-4/acetoxymethyl ester (Invitrogen) at 37° C. for 1.5 h in the presence of an anion transport inhibitor (2.5 mM probenecid in 1% FBS/MEM). Extracellular dye was removed by washing with assay buffer (2.5 mM probenecid, 0.1% BSA in 20 mM HEPES/HBSS without bicarbonate or phenol red, pH 7.5) and cell plates were kept in the dark until used. Test compounds were assayed at eight concentrations in triplicate. Addition of test compounds to the cell plate and incubation for 5 min at 35° C., followed by the addition of 2 to 8 nM final BK1 agonist desArg^10-kallidin (DAKD, 3×EC50) was carried out in the fluorimetric imaging plate reader (FLIPR; Molecular Devices) while continuously monitoring calcium-dependent fluorescence.

**Q.** Which IC50 does the source give for `Cc1cc(NC(=O)C(C)c2ccc(CC(C)C)cc2)n(C)n1` (centres unmarked) [Compound 40, N-(1,3-dimethyl-1H-pyrazol-5-yl)-2-[4-(2-methylpropyl)phenyl]propanamide] here?
**A.** The IC50 was 2.09 µM.

**Q.** Which IC50 does the source give for `COc1cccc(Nc2ccc(C(C)C(=O)NC3CCN(Cc4ccccc4)CC3)cc2)c1` (centres unmarked) [Compound 9, 2-{4-[(3-methoxyphenyl)amino]phenyl}-N-(1-benzylpiperidin-4-yl)propanamide] here?
**A.** The IC50 was 7.76 µM.

**Q.** For `CC(F)(C(=O)Nc1ccccc1S(N)(=O)=O)c1cccc(Nc2nc(C(F)(F)F)cs2)c1` (centres unmarked) [Compound 5, 2-fluoro-N-(2-sulfamoylphenyl)-2-(3-{[4-(trifluoromethyl)-1,3-thiazol-2-yl]amino}phenyl)propanamide], which IC50 is on record?
**A.** Its IC50 is 8.71 µM.

**Q.** Which IC50 does the source give for `CC(C)Cc1ccc(C(C)C(=O)NC(N)=O)cc1` (centres unmarked) [Compound 38, N-carbamoyl-2-[4-(2-methylpropyl)phenyl]propanamide] here?
**A.** Its IC50 is 20 µM.

**Q.** For `CC(C(=O)Nc1cc(Cl)cc(Cl)c1S(N)(=O)=O)c1ccc(OS(=O)(=O)c2ccccc2Cl)cc1` (centres unmarked) [Compound 81, 4-{1-[(3,5-dichloro-2-sulfamoylphenyl)amino]-1-oxopropan-2-yl}phenyl 2-chlorobenzenesulfonate], which IC50 is on record?
**A.** Its IC50 is 8.71 µM.

**Q.** `CC(C(=O)Nc1nc(C(C)(C)C)cs1)c1ccc(NS(=O)(=O)C(C)C)cc1` (centres unmarked) [Compound 21, 2-{4-[(propan-2-ylsulfonyl)amino]phenyl}-N-(4-tert-butyl-1,3-thiazol-2-yl)propanamide] was tested. Which IC50 did it give?
**A.** Its IC50 is 9.12 µM.

**Q.** Which IC50 does the source give for `CC(C(=O)NCCN1CCOCC1)c1ccc(Oc2cccc3ccccc23)cc1` (centres unmarked) [Compound 67, 2-[4-(naphthalen-1-yloxy)phenyl]-N-[2-(morpholin-4-yl)ethyl]propanamide] here?
**A.** The IC50 was 4.07 µM.

**Q.** `COc1cccc(CN(C)CCNC(=O)C(C)c2ccc(NS(=O)(=O)C(C)C)cc2)c1` (centres unmarked) [Compound 22] was tested. Which IC50 did it give?
**A.** The IC50 was 8.13 µM.

**Q.** Which IC50 does the source give for `CC(C(=O)Nc1ccc(Cc2ccncc2)cc1)c1ccc(Nc2nc(C(F)(F)F)cs2)cc1` (centres unmarked) [Compound 44, N-[4-(pyridin-4-ylmethyl)phenyl]-2-(4-{[4-(trifluoromethyl)-1,3-thiazol-2-yl]amino}phenyl)propanamide] here?
**A.** Its IC50 is 11.5 µM.

**Q.** `CC(C(=O)Nc1nccs1)c1cccc(C(=O)c2ccccc2)c1` (centres unmarked) [Compound 33, 2-[3-(phenylcarbonyl)phenyl]-N-(1,3-thiazol-2-yl)propanamide] was tested. Which IC50 did it give?
**A.** The IC50 was 10.2 µM.

**Q.** With `CC(C)(C(=O)NCCc1ccncc1)c1ccc(OS(=O)(=O)C(F)(F)F)cc1` [Compound 7, 4-(2-methyl-1-oxo-1-{[2-(pyridin-4-yl)ethyl]amino}propan-2-yl)phenyl trifluoromethanesulfonate] as the compound, how does the IC50 read?
**A.** Its IC50 is 11.5 µM.

**Q.** `Cc1ccc(OCC(O)CNC(=O)C(C)c2ccc(Nc3nc(C(F)(F)F)co3)cc2)cc1C` (centres unmarked) [Compound 32, N-[2-hydroxy-3-(3,4-dimethylphenoxy)propyl]-2-(4-{[4-(trifluoromethyl)-1,3-oxazol-2-yl]amino}phenyl)propanamide] was tested. Which IC50 did it give?
**A.** Its IC50 is 8.32 µM.

**Q.** `COC(=O)C(CNC(=O)OC(C)(C)C)NC(=O)C(C)c1ccc(Oc2cccc3ccccc23)cc1` (centres unmarked) [Compound 60, methyl 3-[(tert-butoxycarbonyl)amino]-2-[4-(naphthalen-1-yloxyphenyl)propanoyl]aminopropanoate] was tested. Which IC50 did it give?
**A.** Its IC50 is 10.5 µM.

**Q.** `CCn1cc(NC(=O)C(C)c2ccc(C(=O)c3ccccc3)s2)c(C)n1` (centres unmarked) [Compound 8, N-(1-ethyl-3-methyl-1H-pyrazol-4-yl)-2-[5-(phenylcarbonyl)thiophen-2-yl]propanamide] was tested. Which IC50 did it give?
**A.** Its IC50 is 2.63 µM.

**Q.** How did the IC50 turn out when `CC(F)(C(=O)NCCNc1ccccn1)c1ccc(OS(=O)(=O)C(F)(F)F)cc1` (centres unmarked) [Compound 3, 4-(2-fluoro-1-oxo-1-{[2-(pyridin-2-ylamino)ethyl]amino}propan-2-yl)phenyl trifluoromethanesulfonate] was run?
**A.** Its IC50 is 13.2 µM.

**Q.** How did the IC50 turn out when `CCn1nc(C)cc1NC(=O)C(C)c1ccc(Nc2nc(C(F)(F)F)cs2)cc1` (centres unmarked) [Compound 41, N-(1-ethyl-3-methyl-1H-pyrazol-5-yl)-2-(4-{[4-(trifluoromethyl)-1,3-thiazol-2-yl]amino}phenyl)propanamide] was run?
**A.** The IC50 was 10 µM.

**Q.** For `Cc1cc(NC(=O)C(C)c2cccc(C(=O)c3ccccc3)c2)n(C)n1` (centres unmarked) [Compound 36, N-(1,3-dimethyl-1H-pyrazol-5-yl)-2-[3-(phenylcarbonyl)phenyl]propanamide], which IC50 is on record?
**A.** Its IC50 is 9.77 µM.

**Q.** How did the IC50 turn out when `CC(F)(C(N)=O)c1ccc(OS(=O)(=O)C(F)(F)F)cc1` (centres unmarked) [Compound 1, 4-(1-amino-2-fluoro-1-oxopropan-2-yl)phenyl trifluoromethanesulfonate] was run?
**A.** The IC50 was 6.46 µM.

**Q.** How did the IC50 turn out when `CC(C(=O)NC1CCCCC1)c1cccc(C(=O)c2ccccc2)c1` (centres unmarked) [Compound 34, N-cyclohexyl-2-[3-(phenylcarbonyl)phenyl]propanamide] was run?
**A.** Its IC50 is 8.51 µM.

**Q.** How did the IC50 turn out when `CC(C(=O)Nc1ccncc1)c1ccc(OS(=O)(=O)C(F)(F)F)cc1` (centres unmarked) [Compound 47, 4-[1-oxo-1-(pyridin-4-ylamino)propan-2-yl]phenyl trifluoromethanesulfonate] was run?
**A.** Its IC50 is 3.24 µM.

**Q.** How did the IC50 turn out when `CC(C(=O)Nc1ccncn1)c1ccc(N2CCCCC2)cc1` (centres unmarked) [Compound 69, 2-[4-(piperidin-1-yl)phenyl]-N-(pyrimidin-4-yl)propanamide] was run?
**A.** Its IC50 is 14.1 µM.

**Q.** How did the IC50 turn out when `CC(C(=O)NCCN1CCCC1)c1cccc(Oc2cccc(OC(F)(F)F)c2)c1` (centres unmarked) [Compound 19, N-[(2-pyrrolidin-1-yl)ethyl]-2-{3-[3-(trifluoromethoxy)phenoxy]phenyl}propanamide] was run?
**A.** The IC50 was 7.76 µM.

**Q.** How did the IC50 turn out when `CC(C(=O)Nc1cnccn1)c1ccc(N2CCCCC2)cc1` (centres unmarked) [Compound 77, 2-[4-(piperidin-1-yl)phenyl]-N-(pyrazin-2-yl)propanamide] was run?
**A.** The IC50 was 4.37 µM.

**Q.** `Cc1ccc(Cl)c(Nc2ccc(C(C)C(=O)NCCN3CCOCC3)cc2)c1Cl` (centres unmarked) [Compound 16, 2-{4-[(2,6-dichloro-3-methylphenyl)amino]phenyl}-N-[2-(morpholin-4-yl)ethyl]propanamide] was tested. Which IC50 did it give?
**A.** The IC50 was 12 µM.

**Q.** With `CC(C(=O)Nc1ccccc1)c1cccc(C(=O)c2ccccc2)c1` (centres unmarked) [Compound 35, N-phenyl-2-[3-(phenylcarbonyl)phenyl]propanamide] as the compound, how does the IC50 read?
**A.** Its IC50 is 10 µM.

**Q.** `CC(C(=O)NCCOc1ccc(F)cc1)c1cccc(OS(=O)(=O)C(F)(F)F)c1` (centres unmarked) [Compound 20, 3-(1-{[2-(4-fluorophenoxy)ethyl]amino}-1-oxopropan-2-yl)phenyl trifluoromethanesulfonate] was tested. Which IC50 did it give?
**A.** Its IC50 is 16.6 µM.

**Q.** For `CC(C)(C)NC(=O)CNC(=O)C(C)(C)c1ccc(OS(=O)(=O)C(F)(F)F)cc1` [Compound 6, 4-(2-methyl-1-{[2-(tert-butylamino)-2-oxoethyl]amino}-1-oxopropan-2-yl)phenyl trifluoromethanesulfonate], which IC50 is on record?
**A.** Its IC50 is 17.8 µM.

**Q.** How did the IC50 turn out when `CC(C(=O)Nc1ccc(Cc2ccncc2)cc1)c1ccc(OS(=O)(=O)C(F)(F)F)cc1` (centres unmarked) [Compound 48, 4-{1-oxo-1-[4-(pyridin-4-ylmethyl)propan-2-yl]amino}phenyl trifluoromethanesulfonate] was run?
**A.** The IC50 was 12.6 µM.

**Q.** For `CC(C(=O)Nc1cnccn1)c1ccc(Oc2ccc(F)cc2)cc1` (centres unmarked) [Compound 75, 2-[4-(4-fluorophenoxy)phenyl]-N-(pyrazin-2-yl)propanamide], which IC50 is on record?
**A.** The IC50 was 1.2 µM.

**Q.** `CC(C(=O)Nc1ccncc1)c1ccc(Nc2ccccc2-n2cccc2)cc1` (centres unmarked) [Compound 82] was tested. Which IC50 did it give?
**A.** The IC50 was 5.75 µM.

**Q.** For `CC(C(=O)NCC(=O)NC(C)(C)C)c1ccc(Nc2nc(C(F)(F)F)co2)cc1` (centres unmarked) [Compound 30, N-[2-(tert-butylamino)-2-oxoethyl]-2-(4-{[4-(trifluoromethyl)-1,3-oxazol-2-yl]amino}phenyl)propanamide], which IC50 is on record?
**A.** The IC50 was 7.76 µM.

**Q.** For `CC(C(=O)Nc1ccncc1)c1ccc(Oc2cccc(F)c2)cc1` (centres unmarked) [Compound 68, 2-[4-(3-fluroophenoxy)phenyl]-N-(pyridin-4-yl)propanamide], which IC50 is on record?
**A.** Its IC50 is 6.17 µM.

**Q.** For `COc1cccc(Nc2ccc(C(C)C(=O)Nc3ccncn3)cc2)c1OC` (centres unmarked) [Compound 26, 2-{4-[(2,3-dimethoxyphenyl)amino]phenyl}-N-(pyrimidin-4-yl)propanamide], which IC50 is on record?
**A.** The IC50 was 5.75 µM.

**Q.** Which IC50 does the source give for `CC(C)Cc1ccc(C(C)C(=O)Nc2cc[n+](C)cn2)cc1` (centres unmarked) [Compound 39, 1-methyl-4-({2-[4-(2-methylpropyl)phenyl]propanoyl}amino)pyrimidin-1-ium iodide] here?
**A.** The IC50 was 12.6 µM.

**Q.** How did the IC50 turn out when `COc1cccc(Nc2ccc(C(C)C(=O)Nc3cc(C)nn3C)cc2)c1` (centres unmarked) [Compound 10] was run?
**A.** The IC50 was 7.94 µM.

**Q.** For `CC(C(=O)Nn1cnnc1)c1ccc(NS(=O)(=O)c2ccc(Cl)cc2)cc1` (centres unmarked) [Compound 78, 2-(4-{[(4-chlorophenyl)sulfonyl]amino}phenyl)-N-(4H-1,2,4-triazol-4-yl) propanamide], which IC50 is on record?
**A.** Its IC50 is 0.891 µM.

**Q.** For `CCCC/C=C/c1cccc(C(C)C(=O)Nc2ccncn2)c1` (centres unmarked) [Compound 28, 2-{3-[hex-1-en-1-yl]phenyl}-N-(pyrimidin-4-yl)propanamide], which IC50 is on record?
**A.** Its IC50 is 8.51 µM.

**Q.** With `CC(C(=O)Nc1ccncc1)c1ccc(Nc2cnc3ccccc3c2)cc1` (centres unmarked) [Compound 80, N-(pyridin-4-yl)-2-[4-(quinolin-3-ylamino)phenyl]propanamide] as the compound, how does the IC50 read?
**A.** Its IC50 is 5.25 µM.
